Test results as given in patent US11952337B2, “Bioenergetically active esters for health and disease” (University of Kansas, priority 2018, dated 2024).
Entries after “also recorded” stand apart in the source; their conditions may differ.

Columns and labels:
[1] = system: SH-SY5Y cells; assay: Respiration / oxygen consumption rate (OCR), Seahorse Extracellular Flux analyzer; format: cell-based, human; settings: for Effect on respiration (OCR), in words: SH-SY5Y cultured neuronal cells; for Increase of cellular respiration and/or glycolysis, near maximum possible levels: preliminary testing, FIGS. 2 and 3; for ATP-linked Respiration / Change in OCR post injection (1) / Maximum OCR / Post-Oligomycin (Leak Rate) OCR: average of three experiments
Experimental: (§1) In these experiments, oligomycin, FCCP, rotenone/antimycin, and 2-deoxyglucose were used to determine the proportion of oxygen that was consumed as part of the mitochondrial “leak” and “ATP production”; maximum and spare flux rates were also determined using standard established flux analysis protocols. […] FIG. 1D schematically summarizes this pathway.
(§2) For these measurements, oligomycin, FCCP, and rotenone/antimycin were used to determine mitochondrial respiration leak rates, the maximum oxygen consumption rate, and the non-mitochondrial oxygen consumption rate. […] The dose-response was logarithmic over a test range of 0.1 to 2 mM (FIG. 4). FIG. 3A illustrates respiration peaking at ˜40% enhancement, which is the maximum possible when mitochondria are chemically uncoupled.

[2] = system: SH-SY5Y cells; assay: Glycolysis flux (ECAR), Seahorse Extracellular Flux analyzer; format: cell-based, human
Experimental: as §1, §2

[3] = mice, cited from earlier work
[4] = in solution, especially in the presence of amino acids; cited from earlier work
[5] = cited from earlier work

## CC(CC(=O)O)OC(=O)CC(=O)C(=O)OC(C)CC(=O)O (centres unmarked) [OAA(BHB)2, 3,3′-((2-oxosuccinyl)bis(oxy))dibutyric acid]
[1]; 1-mM dose, SH-SY5Y, FIG. 2, averages of three experiments
  Increase in cell respiration: ~30%
[1]
  Effect on respiration (OCR), in words: increases respiration
  Increase of cellular respiration and/or glycolysis, near maximum possible levels: ~40%

## CC(O)COC(=O)CC(=O)C(=O)OCC(C)O (centres unmarked) [OAA(PG)2, Bis(2-hydroxypropyl) 2-oxosuccinate]
[1]; 0.1 mM, SH-SY5Y
  ATP-linked Respiration: 50.1%
  Change in OCR post injection (1): 101.7%
  Maximum OCR: 98.92%
  Post-Oligomycin (Leak Rate) OCR: 51.58%
[1]; 0.25 mM, SH-SY5Y
  ATP-linked Respiration: 50.66%
  Change in OCR post injection (1): 101.1%
  Maximum OCR: 93.08%
  Post-Oligomycin (Leak Rate) OCR: 50.46%
[1]; 0.5 mM, SH-SY5Y
  ATP-linked Respiration: 44.78%
  Change in OCR post injection (1): 103.9%
  Maximum OCR: 93.62%
  Post-Oligomycin (Leak Rate) OCR: 59.15%
[1]; 1 mM, SH-SY5Y
  ATP-linked Respiration: 52.7%
  Change in OCR post injection (1): 106.5%
  Maximum OCR: 81.46%
  Post-Oligomycin (Leak Rate) OCR: 53.8%
[1]; 2 mM, SH-SY5Y
  ATP-linked Respiration: 68.89%
  Change in OCR post injection (1): 119.8%
  Maximum OCR: 91.73%
  Post-Oligomycin (Leak Rate) OCR: 50.86%
[1]
  Effect on respiration (OCR), in words: enhance respiration
  Increase of cellular respiration and/or glycolysis, near maximum possible levels: ~40%
[1]; SH-SY5Y, FIG. 3A, maximum possible when mitochondria are chemically uncoupled
  Peak enhancement of respiration: ~40%
[1]; test range of 0.1 to 2 mM, FIG. 4
  Shape of dose-response of respiration: logarithmic
[2]; 1, 2 and 5 mM OAA(PG)2, SH-SY5Y, FIG. 3B
  Effect on glycolysis (ECAR): without concomitantly creating a statistical reduction in the glycolysis flux; also recorded: insignificant effect on glycolysis

## O=C(O)CC(=O)C(=O)O [OAA, 2-oxosuccinic acid]
[3]; 1 g/kg/day and 2 g/kg/day
  Brain changes: induced unequivocal brain changes
[3]; intraperitoneal (IP) injection
  Activity of NFκB transcription factor (neuroinflammation): lessened activity
  Hippocampal neurogenesis: increased hippocampal neurogenesis
  Insulin pathway signaling in brain: enhanced insulin pathway signaling
  Mitochondrial biogenesis parameters in brain: promoted mitochondrial biogenesis parameters
[1]; OAA treatment, SH-SY5Y, FIG. 1C
  Increase in cellular respiration: about 50%
[1]
  Effect on respiration (OCR), in words: increase aspects of mitochondrial respiration flux
[4]
  Decarboxylation rate into pyruvate: ~1 %/min
[2]; 2 mM OAA, SH-SY5Y, FIG. 1B
  Increase in glycolysis flux capacity: about 50%
[2]; 2 mM, SH-SY5Y, FIG. 1B
  Effect on glycolysis flux: enhances rather than impedes glycolysis flux
[5]; AD clinical study, doses up to 1 gram BID
  Safety profile: excellent safety profile
[5]; PK study, 100 mg BID, AD participants
  Plasma level increase: did not reveal a reliable plasma level increase

## CC(O)C(=O)O (centres unmarked) [lactate, reference compound]
[1]; experiments not further specified
  Effect on respiration, in words: effectively promote respiration
